Experimental data published in article PMC6295333 (Biochemistry, 2018).

Target: Nicotine oxidoreductase (NicA2) (Pseudomonas putida, UniProt F8G0P2)
Assay: X-ray crystal structure at […] Å
Type: binding

Sequence of Nicotine oxidoreductase (NicA2) (F8G0P2 whole entry): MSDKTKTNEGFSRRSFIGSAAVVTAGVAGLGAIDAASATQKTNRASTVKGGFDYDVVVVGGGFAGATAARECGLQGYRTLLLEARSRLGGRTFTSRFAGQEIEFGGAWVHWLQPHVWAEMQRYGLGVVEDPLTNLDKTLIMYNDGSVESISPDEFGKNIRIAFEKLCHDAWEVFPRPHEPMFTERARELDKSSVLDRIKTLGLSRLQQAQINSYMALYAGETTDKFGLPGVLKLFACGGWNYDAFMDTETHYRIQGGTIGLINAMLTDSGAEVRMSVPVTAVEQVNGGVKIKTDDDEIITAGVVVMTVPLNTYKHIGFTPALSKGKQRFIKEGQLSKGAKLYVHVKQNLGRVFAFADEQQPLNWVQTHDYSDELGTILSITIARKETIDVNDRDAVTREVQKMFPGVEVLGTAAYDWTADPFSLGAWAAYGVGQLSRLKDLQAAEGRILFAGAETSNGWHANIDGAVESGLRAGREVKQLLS

For `Cc1cc2nc3c(=O)[nH]c(=O)nc-3n(C[C@H](O)[C@H](O)[C@H](O)COP(=O)(O)OP(=O)(O)OC[C@H]3O[C@@H](n4cnc5c(N)ncnc54)[C@H](O)[C@@H]3O)c2cc1C` [FAD], the “X-ray crystal structure at 2.65 Å” value was “The general positioning of FAD is clearly defined in the electron density maps”.
